Patent US20230203095A1, “BIOLOGICAL PEPTIDE FOR TREATING LUNG DISEASES AND APPLICATION THEREOF” (SHANGHAI INSTITUTE OF PHARMACEUTICAL INDUSTRY CO., LTD., priority 2019, published 2023)
Like-named read-outs stand apart in the source and are kept apart here. Square brackets hold non-standard residues; d marks the D form. Peptide text beside a SMILES is read from it. * marks the point of attachment. X1 = CC(=O)N[C@H]1C(*)O[C@H](CO)[C@@H](O)[C@@H]1O

How the values were obtained:
[1] = tested on: ConA-stimulated mouse splenocytes; test: Secretion of IL-4 from mouse splenocytes stimulated by ConA (ELISA); type: cell-based, BALB/C mice; conditions: for IL-4 levels of polypeptides: ConA 5 µg/mL, 24 h
Method: (§1) Three BALB/C mice were sacrificed by cervical dislocation after anesthesia. Then mice were immersed in 75% ethanol for 5 minutes. After dissection and spleen extraction, spleen lymphocytes were prepared. […] Different concentrations of test substances were added to each well, and duplicate wells were set for each concentration, and the final concentration of ConA was 5 µg/mL. The plate was incubated in a 37° C. 5% CO2 incubator for 24 h, the drug-containing cell suspension was aspirated from each well, then centrifuged at 200 g for 15 min at 4° C. The supernatant was taken, and mouse IL-4 Elisa kit was used to detect IL- 4 content.
as §1, with “each concentration was” for “duplicate wells were”, “up as triple wells,” for “for each concentration,”, “kit (mouse IL-4 Elisa kit)” for “kit”

[2] = Stability of each 7-peptide compound in rat whole blood; type: in vitro ADME; conditions: for stability in whole blood: compared with SP peptide; for recovery: read-out: Recovery rate (%) M±SD
Method: Preparation of the test product: SP and SIPI-D00 were dissolved and diluted with an appropriate amount of 50% acetonitrile water containing 0.1% formic acid to obtain a working solution with a concentration of 200 µg/mL.
• 1) Fresh rat whole blood was added to the EP tube, and shaken gently to mix well; • 2) The EP tube was pre-incubated in a 37° C. water bath for 5 minutes; • 3) Each compound was added to start the reaction and continued to incubate at 37° C.; • 4) 50 µL sample was taken from the sample tube at 0, 2 min, 5 min, 10 min, 30 min, and 60 min, respectively, into the stop tube, 50 µL of ice-cold 7% perchloric acid was added, and shaken to stop the reaction; • 5) Sample was centrifuged at 13000 r/min for 10 min, 75 µL supernatant was aspirated, 60 µL1.25% ammonia water was added and mixed well. After filtered with […] microporous membrane, 20 µL sample was taken for LC-MS/MS analysis.

serum IgE = test: Serum IgE level in OVA-induced allergic asthma model mice; type: in vivo, BALB/c mice; conditions: for Serum IgE level (OD450): days 19-28, n=10
Method: The first batch: mice were divided into groups, 10 mice in each group, namely: blank control group (normal saline), model group (OVA, 20 ug/mouse), SP peptide group (administered dose of 175 µg/kg body weight/day, 350 µg/kg body weight/day, respectively), SIPI-D00 peptide group (administered dose of 175 µg/kg body weight/day, 350 µg/kg body weight/day), and dexamethasone group (administered dose of 2 mg/kg body weight/day).
OVA for sensitization was dissolved in sterile PBS solution at a final concentration of 0.2 mg/mL, then an equal volume of aluminum hydroxide adjuvant was added. After shaking for 30 minutes, each mouse was intraperitoneally injected with 0.2 mL (20 µg OVA per mouse).
2% OVA solution was prepared in sterile PBS. The 2% OVA was nebulized with a nebulizer, and the mice were placed in the nebulizer inhalation box for 30 minutes per day.
According to the dosage, SP peptide and SIPI-D00 were dissolved in normal saline respectively, and administered by subcutaneous administration on the back according to the body weight of the animals.
Mice in the model group, SP peptide group, SIPI-D00 peptide group and dexamethasone group were sensitized by intraperitoneal injection of OVA (20 µg OVA/mice) on day 0, 7, and 14, and challenged by aerosol administration of OVA (once a day for 5 consecutive days) on day 21-25 to construct asthmatic model animals. Mice in the model group were given normal saline on days 21-28; mice in different doses of SP peptide group and SIPI-D00 peptide group were injected subcutaneously with different doses of SP and SIPI-D00 on days 19-28; mice in dexamethasone group were injected intraperitoneally with 2 mg/kg/day dexamethasone on days 21-28. At the same time, 10 mice in the blank control group were fed normally from day 0 to day 28 without any treatment, and were given normal saline as a blank control.
After 28 days, blood was collected from the inner canthus of the mouse, and the serum was collected, and the IgE level in the serum was measured with an ELISA kit. […]
At the same time, 10 mice in the blank control group were fed normally from day 0 to day 28 without any treatment, and were given normal saline as a blank control.

[3] = rat whole blood, 37° C., 1000 ng/mL, incubation time 0 min
[4] = rat whole blood, 37° C., 1000 ng/mL, incubation time 2 min
[5] = rat whole blood, 37° C., 1000 ng/mL, incubation time 5 min
[6] = rat whole blood, 37° C., 1000 ng/mL, incubation time 10 min
[7] = rat whole blood, 37° C., 1000 ng/mL, incubation time 30 min
[8] = rat whole blood, 37° C., 1000 ng/mL, incubation time 60 min

SMILES	secretion of IL-4 by ConA-stimulated mouse spleen lymphocytes (in words) [1]	Inhibitory rate of polypeptide on IL-4 secretion ([1]; peptide concentration 1 µg/mL)	IL-4 levels of polypeptides ([1]; peptide concentration 1 µg/mL)	Inhibitory rate of polypeptide on IL-4 secretion ([1]; peptide concentration 3 µg/mL)	IL-4 levels of polypeptides ([1]; peptide concentration 3 µg/mL)	Inhibitory rate of polypeptide on IL-4 secretion ([1]; peptide concentration 10 µg/mL)	IL-4 levels of polypeptides ([1]; peptide concentration 10 µg/mL)	Inhibitory rate of polypeptide on IL-4 secretion ([1]; peptide concentration 30 µg/mL)	IL-4 levels of polypeptides ([1]; peptide concentration 30 µg/mL)	stability in whole blood [2]	recovery [2, 3]	recovery [2, 4]	recovery [2, 5]	recovery [2, 6]	recovery [2, 7]	Recovery rate (%) M±SD [2, 8]	recovery [2, 8]	Serum IgE level (OD450) (serum IgE; 175 ug/kg/day subcutaneous)	Serum IgE level (OD450) (serum IgE; 350 ug/kg/day subcutaneous)	IgE level in the serum (in words) (serum IgE; compared with the model group and SP peptide group)
C[C@H](O)[C@@H](NC(=O)[C@@H](Cc1ccc(O)cc1)NC(=O)[C@H](NC(=O)[C@@H](CO)NC(=O)CN)[C@H](C)O)C(=O)N[C@H](CCC(N)=O)C(=O)NCC(=O)O [SIPI-D00, GSTYTQG] (H-G[dS][dT][dY][dT][dQ]G-OH)	significantly inhibit	34.96%	14.05 ± 2.19 pg/mL	59.68%	8.71 ± 0.95 pg/mL	71.00%	6.26 ± 0.36 pg/mL	72.82%	5.87 ± 0.49 pg/mL	significantly higher than that of SP peptide	100%	97.9 ± 7.4%	101 ± 10.7%	99.6 ± 1.3%	97.9 ± 2.5%	103±3.9%	100%	0.421 ± 0.044 OD450	0.279 ± 0.036 OD450	significantly decreased
CC(=O)N[C@H]1C(OC[C@H](NC(=O)[C@@H](NC(=O)[C@H](Cc2ccc(O)cc2)NC(=O)[C@@H](NC(=O)[C@H](CCC(N)=O)NC(=O)CN)[C@@H](C)OC2O[C@H](CO)[C@@H](O)[C@H](O)[C@H]2NC(C)=O)[C@@H](C)O)C(=O)NCC(=O)O)O[C@H](CO)[C@@H](O)[C@@H]1O (stereo partly drawn) [SIPI-G9, GQT(Glc)YTS(Glc)G] (H-GQT(X1)YTS(X1)G-OH)										significantly higher than that of SP peptide	100%	98.8 ± 4.6%	98.3 ± 2.9%	96.3 ± 4.9%	95.9 ± 1%		> 90%			
